Source: paper PMC8708689

T1: IRP1 (iron regulatory protein 1) (UniProt P21399 1-889)
T1 sequence: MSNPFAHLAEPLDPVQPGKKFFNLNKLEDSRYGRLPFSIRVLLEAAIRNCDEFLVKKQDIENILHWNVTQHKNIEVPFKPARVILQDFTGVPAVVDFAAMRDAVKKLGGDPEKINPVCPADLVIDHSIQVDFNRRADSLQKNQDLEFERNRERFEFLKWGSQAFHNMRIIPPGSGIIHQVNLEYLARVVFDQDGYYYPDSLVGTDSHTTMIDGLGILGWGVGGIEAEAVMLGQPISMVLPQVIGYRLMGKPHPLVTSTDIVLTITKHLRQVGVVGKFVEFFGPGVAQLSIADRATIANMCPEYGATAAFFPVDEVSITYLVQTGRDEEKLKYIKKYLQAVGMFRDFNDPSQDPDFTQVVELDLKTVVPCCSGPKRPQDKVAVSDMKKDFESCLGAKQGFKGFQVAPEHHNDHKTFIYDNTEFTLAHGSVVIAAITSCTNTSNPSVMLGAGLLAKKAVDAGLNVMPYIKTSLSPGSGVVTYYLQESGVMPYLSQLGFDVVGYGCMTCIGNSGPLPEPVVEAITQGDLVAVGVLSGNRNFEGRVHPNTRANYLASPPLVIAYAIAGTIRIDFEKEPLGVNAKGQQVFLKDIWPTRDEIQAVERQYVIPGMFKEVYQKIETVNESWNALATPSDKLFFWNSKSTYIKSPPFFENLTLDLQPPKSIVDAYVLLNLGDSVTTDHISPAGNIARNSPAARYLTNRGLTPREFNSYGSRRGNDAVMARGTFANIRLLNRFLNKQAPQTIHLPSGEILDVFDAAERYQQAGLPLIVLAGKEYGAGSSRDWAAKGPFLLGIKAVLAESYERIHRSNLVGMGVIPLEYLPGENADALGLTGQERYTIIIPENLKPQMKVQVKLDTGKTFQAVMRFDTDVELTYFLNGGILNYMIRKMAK


Experiments:
[1] = tested on: APP IRE RNA (RNA, mRNA element) GGUGGCGGCGCGGGCAGAGCAAGGACGCGGCGGAU; assay: microscale thermophoresis, labelled IRP1; settings: 150 mM NaCl; binds IRP1/RNA complex, RNA alone not tested; 2 nM IRP1, 600 nM RNA; 25 mM Tris pH 7.4, 0.1% Prionex
[2] = tested on: H-ferritin IRE RNA (RNA, mRNA element) GGGGUUUCCUGCUUCAACAGUGCUUGGACGGAACC; assay: microscale thermophoresis, labelled IRP1; settings: 150 mM NaCl; IRP1/RNA complex, RNA alone not tested; 2 nM IRP1, 250 nM RNA; same buffer; Posiphen to 50 µM
[3] = target: T1, IRP1 (iron regulatory protein 1); assay: MST; no Posiphen; MST: 2 nM labeled IRP1, 25 mM Tris pH 7.4, 150 mM NaCl, 0.1% Prionex, 10 min incubation; temperature not stated; settings: protein: commercial; hairpin

Kd [1] | binding [2] | Molecule | Kd [3]
3.2 nM | no | CN1CC[C@]2(C)c3cc(OC(=O)Nc4ccccc4)ccc3N(C)[C@H]12 | –
– | – | GGGGUUUCCUGCUUCAACAGUGCUUGGACGGAACC (structured_RNA) [H-ferritin IRE RNA (canonical)] | 88.5 nM
– | – | GGUGGCGGCGCGGGCAGAGCAAGGACGCGGCGGAU (structured_RNA) [APP IRE RNA (atypical)] | 225 nM
